Key:
[1] = tested on: low threshold activated Cav3 calcium currents (Cav3.1); test: Whole-cell voltage-clamp patch recording of low threshold activated calcium currents in ventrobasal thalamic neurons of brain slices; assay type: cell-based, rodents (Long-Evans rats, Harley guinea pigs); conditions: for Cav3 peak currents (I-V curve): FIG. 2B
[2] = tested on: thalamic neurons (low threshold spikes, low frequency oscillations); assay type: cell-based
[3] = tested on: high voltage activated calcium currents; test: Whole-cell voltage-clamp patch recording, slow component when low and high voltage activated calcium currents are open; assay type: cell-based, rodents (Long-Evans rats, Harley guinea pigs); conditions: 10 μM; −10 mV, both low and high voltage activated calcium currents open; FIG. 1B
EEG frequency profile = test: EEG recording with Fast Fourier transform frequency analysis in wild type and alpha-1A knockout mice; assay type: in vivo, mouse
Method: Alpha1A knockout mice, which have an enhanced Cav3 calcium channel activity, develop progressive neurological symptoms resembling Thalamo-cortical Dysrhythmia characterized specifically by ataxia and dystonia, before dying, around four weeks after birth (Jun et al. (1999) Proc. Natl. Acad. Sci. USA. 96(26):15245-50).
When a Fast Fourier transform analysis is performed in two segments of 1 second each (FIG. 7A, segments a and b) from the same wild type trace, a wide range of frequencies is observed. Importantly, the presence of high frequencies in the range of gamma band is observed (FIG. 7A, red arrows). In contrast, an alpha-1A knockout mouse presents a totally different EEG recoding.
The administration of 1-octanol (Sinton et al., (1989) Pflügers Archiv 414: 31-36) in wild types versus knockout mice allows the quantification of the effects of such a drug in the high and low frequencies in the EEG. Since knockout mice only present low frequencies, a dose-response curve of 1-octanol can be easily prepared. Also, an augmentation in the ratio of high/low frequencies is expected for the wild types treated with 1-octanol.
Analysis of the frequency components plotted in blue bars show a decrease in the low frequencies (0-15 Hz) and an increase in hi frequencies (30-45 Hz) consistent with the fact that Cav3 channels are responsible for low frequencies and their block produces an increase in high frequency.

[4] = tested on: thalamic neurons (low threshold spike); assay type: cell-based, mouse
[5] = tested on: thalamic neurons (high-frequency 40 Hz subthreshold oscillation); assay type: cell-based, mouse
[6] = 50 μM, wild-type mouse, TTX 2 μM
[7] = wild-type mice, i.p., 0.2 mg/kg, FIG. 7D

## CCCCCCC(C)O (centres unmarked) [2-octanol]
[1]; 10 μM
  Cav3 peak currents (I-V curve): partially reduced
[1]; 100 μM
  Cav3 peak currents (I-V curve): almost abolished
[1]; 100 μM, voltage clamp, high Cs/QX314 intracellular solution
  low threshold activated Cav3 calcium currents: completely abolished
[1]; holding −70 mV, steps to −60, −30, −20 and −10 mV, FIG. 2A
  Cav3 calcium currents peak with increasing concentrations: progressive reduction
[2]; 10 μM, five min. of perfusion, FIG. 3A
  thalamic low frequency oscillatory activity (low threshold spikes firing at 2 Hz): complete abolishment
[2]; after 40 min. of washout
  reversibility of the abolishment of oscillatory activity: partially reversible
[2]; after TTX removal from the external solution, FIG. 5A and 5B
  low threshold spike: block
[2]; after TTX removal, after block of low threshold spike, increment in input resistance
  frequency of action potentials of the thalamic neurons: notably increased

## CCCCCCCCO [1-octanol]
[1]; 10 μM, holding level −30 mV where only low voltage activated calcium currents can be open, FIG. 1A
  block of peak fast activated Cav3.1 calcium current (ICa) amplitude: about 30%
[1]; ventrobasal thalamic neurons, conclusion from FIG. 1A and 1B
  specificity of block of low threshold activated Cav3-type currents: specifically block
[3]
  slow component that remains open at the end of the depolarized pulse: leaving unchanged
[2]; 50 μM, FIG. 4A and 4B
  peak of low threshold spikes activated using ramps of current: further decreases
[2]; after blocking Cav3 calcium currents, same amplitude current pulse
  membrane resistance: increments
[2]; current clamp, FIG. 4A and 4B
  effect on the low threshold spikes: concentration-dependent
EEG frequency profile; wild types treated, expected
  ratio of high/low frequencies in the EEG: augmentation

## CCCCCCCCO [octanol]
[1]; clinical concentrations at micromolar level, summary of the examples
  low threshold activated Cav3 calcium currents of neurons of the thalamic Ventrobasal nucleus: significantly reversibly block
[4]; [6]
  rebound low threshold spike: abolished
[4]; alpha1A-KO mouse, TTX, FIG. 6B
  low threshold spike: blocked
[5]; [6]
  40 Hz oscillations on depolarizing square pulses: are observed
[5]; alpha1A-KO mouse, before or after application
  high-frequency 40 Hz oscillations: no high-frequency 40 Hz oscillations are present
[5]; summary of the examples
  high frequency oscillations in the thalamic neurons: does not appear to affect
EEG frequency profile; [7]
  EEG hi frequencies (30-45 Hz): increase
  EEG low frequencies (0-15 Hz): decrease

Source: patent US8614254B2, “Methods and compositions for treating thalamocortical dysrhythmia” (New York University, priority 2007, dated 2013)
